Assay results: ChEMBL document CHEMBL4028835, “Identification of low micromolar dual inhibitors for aldose reductase (ALR2) and poly (ADP-ribose) polymerase (PARP-1) using structure based design approach” (Bioorg Med Chem Lett, 2017)

Tests used:
[1] = Inhibition of goat lenses ALR2 using glyceraldehyde as substrate measured for 5 mins by UV-spectrophotometric method; parameters: species or system Capra hircus
[2] = target: Poly [ADP-ribose] polymerase 1 (Homo sapiens, UniProt P09874); test: Inhibition of PARP1 (unknown origin) using activated DNA as substrate measured after 60 mins in presence of biotinylated NAD by colorimetric assay
Poly [ADP-ribose] polymerase 1, sequence (P09874 whole entry): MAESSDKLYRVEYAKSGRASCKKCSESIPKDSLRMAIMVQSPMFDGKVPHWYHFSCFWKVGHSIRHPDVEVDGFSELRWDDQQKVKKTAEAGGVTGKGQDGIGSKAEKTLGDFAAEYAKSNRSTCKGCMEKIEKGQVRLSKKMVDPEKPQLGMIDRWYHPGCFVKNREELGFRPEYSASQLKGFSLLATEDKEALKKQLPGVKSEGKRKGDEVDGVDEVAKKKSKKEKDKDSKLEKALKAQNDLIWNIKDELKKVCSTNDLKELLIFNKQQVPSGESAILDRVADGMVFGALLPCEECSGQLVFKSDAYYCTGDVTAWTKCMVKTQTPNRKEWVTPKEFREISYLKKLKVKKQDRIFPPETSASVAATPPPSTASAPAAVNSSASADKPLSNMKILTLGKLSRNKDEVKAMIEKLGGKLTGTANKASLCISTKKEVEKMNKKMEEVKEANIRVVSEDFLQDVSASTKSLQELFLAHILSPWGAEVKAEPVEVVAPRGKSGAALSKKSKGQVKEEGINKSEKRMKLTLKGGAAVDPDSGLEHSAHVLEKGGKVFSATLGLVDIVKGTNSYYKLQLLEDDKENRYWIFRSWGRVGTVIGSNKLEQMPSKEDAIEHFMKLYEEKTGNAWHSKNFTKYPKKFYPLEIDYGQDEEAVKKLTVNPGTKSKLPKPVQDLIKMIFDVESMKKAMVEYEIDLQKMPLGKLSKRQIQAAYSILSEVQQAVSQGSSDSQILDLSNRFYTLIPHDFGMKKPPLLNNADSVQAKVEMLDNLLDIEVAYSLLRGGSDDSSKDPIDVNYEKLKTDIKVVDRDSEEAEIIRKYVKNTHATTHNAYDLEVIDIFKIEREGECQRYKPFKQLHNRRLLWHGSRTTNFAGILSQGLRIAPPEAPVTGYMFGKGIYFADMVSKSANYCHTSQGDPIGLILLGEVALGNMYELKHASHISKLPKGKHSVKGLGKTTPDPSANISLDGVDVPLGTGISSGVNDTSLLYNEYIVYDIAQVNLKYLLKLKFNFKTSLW

Row | Structure (SMILES) | IC50 [1] | IC50 [2]
1 | O=C1NC(=O)/C(=C/c2cn(Cc3ccccc3Cl)c3ccccc23)S1 | 4.72 µM | –
2 | CC(C)c1ccc(Cn2cc(C=C3SC(=O)NC3=O)c3ccccc32)cc1 | 40 µM | 0.74 µM
3 | CCc1ccc(Cn2cc(C=C3SC(=O)NC3=O)c3ccccc32)cc1 | 13.9 µM | –
4 | O=C1NC(=O)/C(=C/c2cn(Cc3cccc(C(F)(F)F)c3)c3ccccc23)S1 | 22.9 µM | –
5 | O=C1NC(=O)/C(=C/c2cn(Cc3ccccc3)c3ccccc23)S1 | 6.57 µM | > 100 µM
6 | CC(/C=C1\SC(=S)N(CC(=O)O)C1=O)=C\c1ccccc1 | 0.09 µM | –
7 | Cc1ccc(Cn2cc(C=C3SC(=O)NC3=O)c3ccccc32)cc1 | 11.5 µM | –
8 | O=C1NC(=O)/C(=C/c2c[nH]c3ccccc23)S1 | 16.4 µM | > 100 µM
9 | CC(C)(C)c1ccc(Cn2cc(/C=C3\SC(=O)NC3=O)c3ccccc32)cc1 | 48.5 µM | –
10 | O=C1NC(=O)/C(=C/c2cn(Cc3ccc(F)cc3)c3ccccc23)S1 | 1.7 µM | –
11 | O=C1NC(=O)/C(=C/c2cn(Cc3ccc(Cl)cc3Cl)c3ccccc23)S1 | 24.4 µM | –
12 | O=C1NC(=O)/C(=C/c2cn(Cc3ccc(Cl)cc3)c3ccccc23)S1 | 15.4 µM | > 100 µM
13 | O=C1NC(=O)/C(=C/c2cn(Cc3cccc(Cl)c3)c3ccccc23)S1 | 23 µM | –
